Among the data in article PMC3602154 (PLoS ONE, 2013) are Ki values, retold here.

In one test the target is Beta1 (Homo sapiens, UniProt P08588). The test is described as follows: PDSP radioligand binding, adrenoceptor ß1. From the text:
(§1) [17] and http://pdsp.med.unc.edu/UNC-CH%20Protocol%20Book.pdf.

A further test addresses T1, M2 (Homo sapiens, UniProt P08172).
T1 sequence (P08172 1-466): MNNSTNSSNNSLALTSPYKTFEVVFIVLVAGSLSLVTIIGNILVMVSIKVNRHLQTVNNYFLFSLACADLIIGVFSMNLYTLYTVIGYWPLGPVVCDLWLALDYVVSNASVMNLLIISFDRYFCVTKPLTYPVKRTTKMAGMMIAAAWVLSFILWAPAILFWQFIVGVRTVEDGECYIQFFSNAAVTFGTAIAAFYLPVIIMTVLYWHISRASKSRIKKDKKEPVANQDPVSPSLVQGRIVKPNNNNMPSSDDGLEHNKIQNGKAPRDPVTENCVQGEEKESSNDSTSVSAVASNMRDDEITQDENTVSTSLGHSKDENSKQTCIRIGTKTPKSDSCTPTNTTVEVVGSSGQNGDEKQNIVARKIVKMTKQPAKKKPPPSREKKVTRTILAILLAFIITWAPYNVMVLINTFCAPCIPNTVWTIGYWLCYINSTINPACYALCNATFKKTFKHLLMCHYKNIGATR
In words: PDSP radioligand binding, muscarinic receptor M2.
Excerpt: as §1

Another test deals with 5-HT7 (Homo sapiens, UniProt P34969). In words: PDSP radioligand binding, serotonin receptor 5-HT7.
Excerpt: as §1

A further test has as its target D1 (Homo sapiens, UniProt P21728). In words: PDSP radioligand binding, dopamine receptor D1.
Excerpt: as §1

In another test the target is T2, Alpha2A (Homo sapiens, UniProt P08913).
T2 sequence (P08913 1-465): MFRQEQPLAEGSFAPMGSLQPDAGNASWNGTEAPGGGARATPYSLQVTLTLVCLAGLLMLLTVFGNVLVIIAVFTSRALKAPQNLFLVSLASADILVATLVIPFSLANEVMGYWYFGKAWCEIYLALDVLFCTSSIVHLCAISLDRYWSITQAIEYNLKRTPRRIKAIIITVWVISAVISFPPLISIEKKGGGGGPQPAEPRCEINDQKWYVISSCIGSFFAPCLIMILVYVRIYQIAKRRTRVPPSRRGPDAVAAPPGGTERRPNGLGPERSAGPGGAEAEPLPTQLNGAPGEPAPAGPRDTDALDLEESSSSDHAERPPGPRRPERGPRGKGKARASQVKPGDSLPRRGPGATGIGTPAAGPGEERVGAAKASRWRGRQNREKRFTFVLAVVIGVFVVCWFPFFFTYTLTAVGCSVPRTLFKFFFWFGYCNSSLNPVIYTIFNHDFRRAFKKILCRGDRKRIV
The test is described as follows: PDSP radioligand binding, adrenoceptor α2A.
Excerpt: as §1

In the next test the target is hDAT (Homo sapiens, UniProt Q01959). The test is described as follows: PDSP radioligand binding, dopamine transporter.
Excerpt: as §1

For the next test, the target named is T3, Alpha1B (Homo sapiens, UniProt P35368).
T3 sequence (P35368 1-520): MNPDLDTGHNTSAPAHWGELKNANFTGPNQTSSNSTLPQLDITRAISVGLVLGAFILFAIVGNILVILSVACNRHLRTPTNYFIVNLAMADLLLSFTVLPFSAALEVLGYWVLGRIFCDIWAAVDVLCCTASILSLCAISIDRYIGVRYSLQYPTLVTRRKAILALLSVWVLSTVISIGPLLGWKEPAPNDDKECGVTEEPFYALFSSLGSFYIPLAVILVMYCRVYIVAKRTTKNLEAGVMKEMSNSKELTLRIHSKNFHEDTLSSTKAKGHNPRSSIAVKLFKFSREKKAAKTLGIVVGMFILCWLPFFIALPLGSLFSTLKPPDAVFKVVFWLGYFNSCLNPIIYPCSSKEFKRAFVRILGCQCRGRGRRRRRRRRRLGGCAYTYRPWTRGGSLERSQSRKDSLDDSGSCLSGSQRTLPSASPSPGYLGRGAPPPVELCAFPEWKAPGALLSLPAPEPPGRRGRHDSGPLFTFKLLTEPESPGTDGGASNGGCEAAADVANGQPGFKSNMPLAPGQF
In words: PDSP radioligand binding, adrenoceptor α1B.
Excerpt: as §1

The target in the next test is D5 (Homo sapiens, UniProt P21918). The test is described as follows: PDSP radioligand binding, dopamine receptor D5.
Excerpt: as §1

The target in the next test is T4, Alpha2C (Homo sapiens, UniProt P18825).
T4 sequence (P18825 1-462): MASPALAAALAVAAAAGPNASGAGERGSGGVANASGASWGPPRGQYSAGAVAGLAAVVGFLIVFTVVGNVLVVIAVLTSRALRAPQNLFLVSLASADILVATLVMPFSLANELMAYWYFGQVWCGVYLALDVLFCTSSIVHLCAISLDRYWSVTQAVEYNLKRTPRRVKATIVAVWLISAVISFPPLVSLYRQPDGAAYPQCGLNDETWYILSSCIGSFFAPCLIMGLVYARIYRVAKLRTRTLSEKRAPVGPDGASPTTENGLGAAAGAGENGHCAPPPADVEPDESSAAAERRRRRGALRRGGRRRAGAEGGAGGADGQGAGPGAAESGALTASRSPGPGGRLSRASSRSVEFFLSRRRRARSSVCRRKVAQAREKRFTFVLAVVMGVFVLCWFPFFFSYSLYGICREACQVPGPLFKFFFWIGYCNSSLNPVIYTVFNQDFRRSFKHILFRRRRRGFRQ
The test is described as follows: PDSP radioligand binding, adrenoceptor α2C.
Excerpt: as §1

For the next test, the target named is T5, Alpha2B (Homo sapiens, UniProt P18089).
T5 sequence (P18089 1-450): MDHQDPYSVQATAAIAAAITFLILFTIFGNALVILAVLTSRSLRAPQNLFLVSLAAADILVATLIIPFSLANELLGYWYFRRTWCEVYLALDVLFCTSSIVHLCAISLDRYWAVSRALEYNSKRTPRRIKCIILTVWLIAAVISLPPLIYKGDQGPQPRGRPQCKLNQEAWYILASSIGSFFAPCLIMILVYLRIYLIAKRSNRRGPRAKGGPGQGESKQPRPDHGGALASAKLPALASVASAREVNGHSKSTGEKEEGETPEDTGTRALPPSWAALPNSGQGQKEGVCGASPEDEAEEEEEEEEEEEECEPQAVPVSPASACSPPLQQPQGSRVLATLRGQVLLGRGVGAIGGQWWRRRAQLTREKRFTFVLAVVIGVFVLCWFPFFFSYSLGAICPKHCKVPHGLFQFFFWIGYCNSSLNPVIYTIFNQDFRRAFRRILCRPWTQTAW
The test is described as follows: PDSP radioligand binding, adrenoceptor α2B.
Excerpt: as §1

Chain of hDAT (Q01959 whole entry): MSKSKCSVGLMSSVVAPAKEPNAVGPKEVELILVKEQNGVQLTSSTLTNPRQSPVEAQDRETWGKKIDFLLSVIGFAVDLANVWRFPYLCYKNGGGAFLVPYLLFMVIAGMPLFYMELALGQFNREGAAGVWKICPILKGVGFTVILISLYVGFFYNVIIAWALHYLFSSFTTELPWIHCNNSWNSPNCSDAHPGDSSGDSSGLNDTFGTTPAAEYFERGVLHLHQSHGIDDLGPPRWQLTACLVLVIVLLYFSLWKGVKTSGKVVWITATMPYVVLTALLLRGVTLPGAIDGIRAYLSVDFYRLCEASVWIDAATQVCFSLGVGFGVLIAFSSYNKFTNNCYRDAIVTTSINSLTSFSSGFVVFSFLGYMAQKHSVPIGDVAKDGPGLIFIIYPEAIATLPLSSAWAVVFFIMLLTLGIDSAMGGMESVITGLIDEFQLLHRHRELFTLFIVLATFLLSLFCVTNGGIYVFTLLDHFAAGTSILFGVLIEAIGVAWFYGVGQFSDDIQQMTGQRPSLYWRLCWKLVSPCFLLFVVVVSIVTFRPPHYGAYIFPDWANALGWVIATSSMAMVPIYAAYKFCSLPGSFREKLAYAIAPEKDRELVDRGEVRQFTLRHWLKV
Chain of Beta1 (P08588 whole entry): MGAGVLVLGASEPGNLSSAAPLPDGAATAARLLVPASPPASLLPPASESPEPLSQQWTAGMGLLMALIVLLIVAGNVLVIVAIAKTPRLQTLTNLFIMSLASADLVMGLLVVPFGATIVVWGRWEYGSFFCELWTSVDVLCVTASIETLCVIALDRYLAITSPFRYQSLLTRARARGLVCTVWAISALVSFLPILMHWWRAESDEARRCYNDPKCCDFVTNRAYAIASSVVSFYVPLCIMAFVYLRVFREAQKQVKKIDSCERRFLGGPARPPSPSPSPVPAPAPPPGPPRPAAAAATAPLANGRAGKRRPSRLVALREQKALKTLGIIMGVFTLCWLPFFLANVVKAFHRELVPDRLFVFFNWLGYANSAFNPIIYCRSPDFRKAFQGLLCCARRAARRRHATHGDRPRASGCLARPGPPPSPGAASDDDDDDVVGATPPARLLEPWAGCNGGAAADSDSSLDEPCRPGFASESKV
Chain of D1 (P21728 whole entry): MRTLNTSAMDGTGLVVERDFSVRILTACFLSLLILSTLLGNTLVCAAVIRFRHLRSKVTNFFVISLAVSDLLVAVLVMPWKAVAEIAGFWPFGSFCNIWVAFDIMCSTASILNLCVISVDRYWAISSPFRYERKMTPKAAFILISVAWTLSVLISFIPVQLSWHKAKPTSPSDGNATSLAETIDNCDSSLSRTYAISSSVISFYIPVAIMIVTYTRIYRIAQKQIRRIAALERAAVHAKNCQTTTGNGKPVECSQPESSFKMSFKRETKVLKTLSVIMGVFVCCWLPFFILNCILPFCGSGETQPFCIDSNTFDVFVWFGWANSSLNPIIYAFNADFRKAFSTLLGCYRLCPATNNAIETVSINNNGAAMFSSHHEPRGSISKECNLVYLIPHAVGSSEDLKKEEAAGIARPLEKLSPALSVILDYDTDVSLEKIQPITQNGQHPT
Chain of 5-HT7 (P34969 whole entry, species assumed): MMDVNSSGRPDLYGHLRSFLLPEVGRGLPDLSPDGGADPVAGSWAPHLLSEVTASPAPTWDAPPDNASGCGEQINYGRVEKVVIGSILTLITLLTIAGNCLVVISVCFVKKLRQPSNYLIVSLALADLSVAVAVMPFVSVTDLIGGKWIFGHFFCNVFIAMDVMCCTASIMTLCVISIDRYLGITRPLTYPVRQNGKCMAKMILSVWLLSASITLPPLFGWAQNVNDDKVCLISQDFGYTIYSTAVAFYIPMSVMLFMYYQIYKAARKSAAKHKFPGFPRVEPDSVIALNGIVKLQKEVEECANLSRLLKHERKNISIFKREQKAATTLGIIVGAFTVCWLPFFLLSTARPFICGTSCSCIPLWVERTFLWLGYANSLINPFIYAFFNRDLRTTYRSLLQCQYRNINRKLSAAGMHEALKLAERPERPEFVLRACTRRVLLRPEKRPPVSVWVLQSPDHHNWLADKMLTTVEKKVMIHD
Chain of D5 (P21918 whole entry): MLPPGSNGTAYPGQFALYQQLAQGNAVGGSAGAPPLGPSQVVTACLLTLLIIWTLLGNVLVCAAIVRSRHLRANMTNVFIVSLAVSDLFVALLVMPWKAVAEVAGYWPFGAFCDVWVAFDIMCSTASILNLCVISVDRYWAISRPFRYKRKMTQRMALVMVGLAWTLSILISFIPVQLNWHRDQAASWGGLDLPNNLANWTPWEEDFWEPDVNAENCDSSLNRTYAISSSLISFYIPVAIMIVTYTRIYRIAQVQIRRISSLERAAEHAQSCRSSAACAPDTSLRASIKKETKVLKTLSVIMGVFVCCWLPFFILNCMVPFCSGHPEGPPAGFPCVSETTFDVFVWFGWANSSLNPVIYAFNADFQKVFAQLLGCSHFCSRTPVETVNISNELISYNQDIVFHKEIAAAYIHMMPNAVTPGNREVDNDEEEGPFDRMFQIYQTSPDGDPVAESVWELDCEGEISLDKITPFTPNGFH

On to `COc1cccc(C2(N3CCCCC3)CCCCC2)c1` [3-MeO-PCP, 1-[1-(3-methoxyphenyl)cyclohexyl]piperidine], for which the Ki – broadly, the equilibrium dissociation constant of an inhibitor or competing ligand from its target – was greater than 10 µM at Beta1; greater than 10 µM at M2; greater than 10 µM at 5-HT7; greater than 10 µM on D1; 0.964 µM at Alpha2A; 0.743 µM on hDAT. In addition, the Ki on Alpha1B, on D5, at Alpha2C and on Alpha2B was greater than 10 µM in each case.
As for `CCNC1(c2cccc(OC)c2)CCCCC1=O` (racemic) [Methoxetamine, (RS)-2-(ethylamino)-2-(3-methoxyphenyl)cyclohexanone], the Ki on Beta1, on M2, on 5-HT7, on D1, at Alpha2A and at hDAT was greater than 10 µM throughout. The Ki at Alpha1B, at D5, on Alpha2C and on Alpha2B was greater than 10 µM throughout.
On to `COc1ccc(C2(N3CCCCC3)CCCCC2)cc1` [4-MeO-PCP, 1-[1-(4-methoxyphenyl)cyclohexyl]piperidine], for which the Ki at Beta1, at M2, on 5-HT7, on D1, at Alpha2A and at hDAT was greater than 10 µM each time. Besides, the Ki on Alpha1B, on D5, at Alpha2C and on Alpha2B was greater than 10 µM each time.
